US11098073B2, “Triphenylphosphonium-tethered tetracyclines for use in treating cancer” (Oxford University Innovation Limited, priority 2017, dated 2021)
Structures can show the parent of a compound that is named as a salt.

These molecules were tested on MDA-231 cancer cells (assay: Inhibition of proliferation assay: cell confluence (IncuCyte live cell imaging)). Settings: compound tested at 10 μM, images every 3 h over 4-5 d, relative confluence normalised to time zero.
Type: cell-based
Source text: Inhibition of Proliferation Assay
The confluence value is a surrogate for cell proliferation and growth. The value is expressed as a percent confluence, which represents the fraction of culture dish-surface that is occupied by cells. As the number of cells in the dish increases over time due to proliferation, so will their coverage of that surface increase. Expansion of the cell population on the cell culture-dish surface and confluence have mostly a linear relationship until the cells on the plate surface begin to reach saturation or maximum density.
Confluence is determined based on image analysis. Image based software can identify objects in the image field base on changes to pixel density in a grey scale image. The software can then assign a mask to those pixels within the object. Objects can be ‘gated’ out based on size and shape. To determine cell confluence, images of cells are first masked as objects. The surface area of the image that is masked is measured and compared to the total surface area of the culture dish surface to obtain a percent confluence.
MDA-231 cancer cells were obtained from ATCC. Cells were cultured in Dulbecco's Modified Eagle Medium (DMEM) supplemented with 10% Fetal Bovine Serum (FBS), 2 mM Glutamax, 1 mM Non Essential Amino Acid (NEAA) solution and 1 mM sodium pyruvate. […] Final DMSO concentrations were […]. Images were acquired with an IncuCyte Live Cell Imaging microscopy (Essen Bioscience) at every 3 h under cell culture conditions with 10 OX objective over 4-5 d. Cell confluence was calculated from one field of view per well using the IncuCyte in-built algorithm. Relative confluence values were obtained by normalising each value to the time zero value in each sample.

SMILES | % Confluence
C[C@H]1c2ccc(NC(=O)CCCCCC[P+](c3ccccc3)(c3ccccc3)c3ccccc3)c(O)c2C(=O)C2=C(O)[C@]3(O)C(=O)C(C(N)=O)=C(O)[C@@H](N(C)C)[C@@H]3[C@@H](O)[C@@H]21.[Cl-] [Example 19] | 22.4%
C[C@H]1c2ccc(NC(=O)CCCCCCCCCC[P+](c3ccccc3)(c3ccccc3)c3ccccc3)c(O)c2C(=O)C2=C(O)[C@]3(O)C(=O)C(C(N)=O)=C(O)[C@@H](N(C)C)[C@@H]3[C@@H](O)[C@@H]21 [Example 6, (10-{[(5R,5aR,6S,6aR,7S,10aS)-9-carbamoyl-7-(dimethylamino)-1,6,8,10a,11-pentahydroxy-5-methyl-10,12-dioxo-5,5a,6,6a,7,10,10a,12-octahydrotetracen-2-yl]carbamoyl}decyl)triphenylphosphonium trifluoroacetate] | 36.8%
C[C@H]1c2c(NC(=O)CCCCCCCCC[P+](c3ccccc3)(c3ccccc3)c3ccccc3)ccc(O)c2C(=O)C2=C(O)[C@]3(O)C(=O)C(C(N)=O)=C(O)[C@@H](N(C)C)[C@@H]3[C@@H](O)[C@@H]21 [Example 14, (9-{[(6aS,10S,10aR,11 S,11 aR,12R)-8-carbamoyl-10-(dimethylamino)-4,6,6a,9,11-pentahydroxy-12-methyl-5,7-dioxo-5,6a,7,10,10a,11,11a,12-octahydrotetracen-1-yl]carbamoyl}nonyl)triphenylphosphonium trifluoroacetate] | 87.9%
C[C@H]1c2c(NC(=O)CCCCCCC[P+](c3ccccc3)(c3ccccc3)c3ccccc3)ccc(O)c2C(=O)C2=C(O)[C@]3(O)C(=O)C(C(N)=O)=C(O)[C@@H](N(C)C)[C@@H]3[C@@H](O)[C@@H]21 [Example 4, (7-{[(6aS,10S,10aR,11S,11aR,12R)-8-carbamoyl-10-(dimethylamino)-4,6,6a,9,11-pentahydroxy-12-methyl-5,7-dioxo-5,6a,7,10,10a,11,11a,12-octahydrotetracen-1-yl]carbamoyl}heptyl)triphenylphosphonium trifluoroacetate] | 124.3%
C[C@H]1c2ccc(NC(=O)CNC(=O)CCCCCCC[PH](c3ccccc3)(c3ccccc3)c3ccccc3)c(O)c2C(=O)C2=C(O)[C@]3(O)C(=O)C(C(N)=O)=C(O)[C@@H](N(C)C)[C@@H]3[C@@H](O)[C@@H]21 [Example 3, {7-[({[(5R,5aR,6S,6aR,7S,10aS)-9-carbamoyl-7-(dimethylamino)-1,6,8,10a,11-pentahydroxy-5-methyl-10,12-dioxo-5,5a,6,6a,7,10,10a,12-octahydrotetracen-2-yl]carbamoyl}methyl)carbamoyl]heptyl}triphenylphosphonium trifluoroacetate] | 99.9%
C[C@H]1c2ccc(NC(=O)CNC(=O)CCC[P+](c3ccccc3)(c3ccccc3)c3ccccc3)c(O)c2C(=O)C2=C(O)[C@]3(O)C(=O)C(C(N)=O)=C(O)[C@@H](N(C)C)[C@@H]3[C@@H](O)[C@@H]21 [Example 9, {3-[({[(5R,5aR,6S,6aR,7S,10aS)-9-carbamoyl-7-(dimethylamino)-1,6,8,10a,11-pentahydroxy-5-methyl-10,12-dioxo-5,5a,6,6a,7,10,10a,12-octahydrotetracen-2-yl]carbamoyl}methyl)carbamoyl]propyl}triphenylphosphonium trifluoroacetate] | 83%
C[C@H]1c2ccc(NC(=O)CCNC(=O)CCCCCCC[P+](c3ccccc3)(c3ccccc3)c3ccccc3)c(O)c2C(=O)C2=C(O)[C@]3(O)C(=O)C(C(N)=O)=C(O)[C@@H](N(C)C)[C@@H]3[C@@H](O)[C@@H]21 [Example 10, {7-[(2-{[(5R,5aR,6S,6aR,7S,10aS)-9-carbamoyl-7-(dimethylamino)-1,6,8,10a,11-pentahydroxy-5-methyl-10,12-dioxo-5,5a,6,6a,7,10,10a,12-octahydrotetracen-2-yl]carbamoyl}ethyl)carbamoyl]heptyl}triphenylphosphonium trifluoroacetate] | 92.2%
C[C@H]1c2ccc(CNC(=O)CCCCC[P+](c3ccccc3)(c3ccccc3)c3ccccc3)c(O)c2C(=O)C2=C(O)[C@]3(O)C(=O)C(C(N)=O)=C(O)[C@@H](N(C)C)[C@@H]3[C@@H](O)[C@@H]21 [Example 16, trifluoroacetate] | 116.3%
C[C@H]1c2ccc(NC(=O)CCCCCCCCC[P+](c3ccccc3)(c3ccccc3)c3ccccc3)c(O)c2C(=O)C2=C(O)[C@]3(O)C(=O)C(C(N)=O)=C(O)[C@@H](N(C)C)[C@@H]3[C@@H](O)[C@@H]21 [Example 7, (9-{[(5R,5aR,6S,6aR,7S,10aS)-9-carbamoyl-7-(dimethylamino)-1,6,8,10a,11-pentahydroxy-5-methyl-10,12-dioxo-5,5a,6,6a,7,10,10a,12-octahydrotetracen-2-yl]carbamoyl}nonyl)triphenylphosphonium trifluoroacetate] | 38.7%
C[C@H]1c2ccc(NC(=O)CCCCCCC[P+](c3ccccc3)(c3ccccc3)c3ccccc3)c(O)c2C(=O)C2=C(O)[C@]3(O)C(=O)C(C(N)=O)=C(O)[C@@H](N(C)C)[C@@H]3[C@@H](O)[C@@H]21 [Example 2, (7-{[(5R,5aR,6S,6aR,7S,10aS)-9-carbamoyl-7-(dimethylamino)-1,6,8,10a,11-pentahydroxy-5-methyl-10,12-dioxo-5,5a,6,6a,7,10,10a,12-octahydrotetracen-2-yl]carbamoyl}heptyl)triphenylphosphonium formate] | 81.2%
C[C@H]1c2cccc(O)c2C(=O)C2=C(O)[C@]3(O)C(=O)C(C(N)=O)=C(O)[C@@H](N(C)C)[C@@H]3[C@@H](O)[C@@H]21 [Doxycycline, reference compound] | 98.7%
C[C@H]1c2ccc(NC(=O)CCCCCCCCCCC[P+](c3ccccc3)(c3ccccc3)c3ccccc3)c(O)c2C(=O)C2=C(O)[C@]3(O)C(=O)C(C(N)=O)=C(O)[C@@H](N(C)C)[C@@H]3[C@@H](O)[C@@H]21 [Example 1, (11-{[(5R,5aR,6S,6aR,7S,10aS)-9-carbamoyl-7-(dimethylamino)-1,6,8,10a,11-pentahydroxy-5-methyl-10,12-dioxo-5,5a,6,6a,7,10,10a,12-octahydrotetracen-2-yl]carbamoyl}undecyl)triphenylphosphonium formate] | 27.1%
C[C@H]1c2ccc(CNC(=O)CCCCCCC[P+](c3ccccc3)(c3ccccc3)c3ccccc3)c(O)c2C(=O)C2=C(O)[C@]3(O)C(=O)C(C(N)=O)=C(O)[C@@H](N(C)C)[C@@H]3[C@@H](O)[C@@H]21 [Example 17, trifluoroacetate] | 79.4%
C[C@H]1c2c(NC(=O)CCNC(=O)CCCCCCC[P+](c3ccccc3)(c3ccccc3)c3ccccc3)ccc(O)c2C(=O)C2=C(O)[C@]3(O)C(=O)C(C(N)=O)=C(O)[C@@H](N(C)C)[C@@H]3[C@@H](O)[C@@H]21 [Example 15, {7-[(2-{[(6aS,10S,10aR,11S,11aR,12R)-8-carbamoyl-10-(dimethylamino)-4,6,6a,9,11-pentahydroxy-12-methyl-5,7-dioxo-5,6a,7,10,10a,11,11a,12-octahydrotetracen-1-yl]carbamoyl}ethyl)carbamoyl}heptyl}triphenylphosphonium trifluoroacetate] | 112.8%
C[C@H]1c2ccc(NC(=O)CCCCCCCC[P+](c3ccccc3)(c3ccccc3)c3ccccc3)c(O)c2C(=O)C2=C(O)[C@]3(O)C(=O)C(C(N)=O)=C(O)[C@@H](N(C)C)[C@@H]3[C@@H](O)[C@@H]21.[Cl-] [Example 20] | 25.2%
C[C@H]1c2ccc(CNC(=O)CCCCCCCCC[P+](c3ccccc3)(c3ccccc3)c3ccccc3)c(O)c2C(=O)C2=C(O)[C@]3(O)C(=O)C(C(N)=O)=C(O)[C@@H](N(C)C)[C@@H]3[C@@H](O)[C@@H]21 [Example 5, trifluoroacetate] | 37%
C[C@H]1c2ccc(NC(=O)CNC(=O)CCCCC[P+](c3ccccc3)(c3ccccc3)c3ccccc3)c(O)c2C(=O)C2=C(O)[C@]3(O)C(=O)C(C(N)=O)=C(O)[C@@H](N(C)C)[C@@H]3[C@@H](O)[C@@H]21 [Example 8, {5-[({[(5R,5aR,6S,6aR,7S,10aS)-9-carbamoyl-7-(dimethylamino)-1,6,8,10a,11-pentahydroxy-5-methyl-10,12-dioxo-5,5a,6,6a,7,10,10a,12-octahydrotetracen-2-yl]carbamoyl}methyl)carbamoyl]pentyl}triphenylphosphonium trifluoroacetate] | 96.2%
C[C@H]1c2ccc(NC(=O)CCCCC[P+](c3ccccc3)(c3ccccc3)c3ccccc3)c(O)c2C(=O)C2=C(O)[C@]3(O)C(=O)C(C(N)=O)=C(O)[C@@H](N(C)C)[C@@H]3[C@@H](O)[C@@H]21.[Cl-] [Example 18] | 59.1%
C[C@H]1c2c(NC(=O)CCCCCCCCCCC[P+](c3ccccc3)(c3ccccc3)c3ccccc3)ccc(O)c2C(=O)C2=C(O)[C@]3(O)C(=O)C(C(N)=O)=C(O)[C@@H](N(C)C)[C@@H]3[C@@H](O)[C@@H]21 [Example 13, (11-{[(6aS,10S,10aR,11 S,11 aR,12R)-8-carbamoyl-10-(dimethylamino)-4,6,6a,9,11-pentahydroxy-12-methyl-5,7-dioxo-5,6a,7,10,10a,11,11a,12-octahydrotetracen-1-yl]carbamoyl}undecyl)triphenylphosphonium trifluoroacetate] | 53.7%

Same assay, conditions: compound tested at 50 μM, images every 3 h over 4-5 d, relative confluence normalised to time zero

SMILES | % Confluence
C[C@H]1c2cccc(O)c2C(=O)C2=C(O)[C@]3(O)C(=O)C(C(N)=O)=C(O)[C@@H](N(C)C)[C@@H]3[C@@H](O)[C@@H]21 [Doxycycline, reference compound] | 91%
